Source: patent publication US8420655B2, “Benzimidazole inhibitors of leukotriene production” (Boehringer Ingelheim International GmbH, priority 2009, dated 2013)

Target: T1, recombinant human FLAP protein (Homo sapiens, UniProt P20292)
T1 construct: made in house; host or cells: Sf9 insect cells (membrane fraction, 100,000 x g pellet)
T1 sequence (P20292 1-161): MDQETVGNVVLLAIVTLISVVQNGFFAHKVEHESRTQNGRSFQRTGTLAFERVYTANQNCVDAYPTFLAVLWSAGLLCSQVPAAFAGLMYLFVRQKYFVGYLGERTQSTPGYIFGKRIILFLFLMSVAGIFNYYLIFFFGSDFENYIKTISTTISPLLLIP
Experiment: FLAP binding assay, displacement of iodinated (125I) FLAP inhibitor, Scintillation Proximity Assay format
Details: [125I]L-691,831 probe, membrane protein from sf9 cells; read-out: hFLAP binding IC50
Procedure: Compounds are assessed for the ability to bind to FLAP in a binding assay that measures compound-specific displacement of an iodinated (^125I) FLAP inhibitor via a Scintillation Proximity Assay format (adapted from S. Charleson et al., Mol. Pharmacol., 1992, 41, 873-879).
Cell pellets produced from sf9 insect cells expressing recombinant human FLAP protein are resuspended in buffer A [15 mM Tris-HCl (pH 7.5), 2 mM MgCl2, 0.3 mM EDTA, 1 mM PMSF]. The cells are lysed with a Dounce homogenizer and the material is centrifuged at 10,000×g for 10 minutes. The supernatant is then collected and centrifuged at 100,000×g for 60 minutes. To prepare membrane protein for an assay, an aliquot of the 100,000×g pellet is resuspended in 1 ml of buffer A, Dounce homogenized, and finally subjected to polytron mixing (30 seconds). Membrane protein (25 μl, 5 μg) is mixed with WGA SPA beads (Amersham) and stirred for 1 h. To an assay plate (Perkin Elmer FlexiPlate) is added 25 μl of test compound prepared in Binding buffer [100 mM Tris (pH 7.5), 140 mM NaCl, 5% glycerol, 2 mM EDTA, 0.5 mM TCEP, 0.05% Tween 20], 25 μl of [^125I]L-691,831 (an iodinated analog of MK-591, Charleson et al. Mol. Pharmacol., 41, 873-879, 1992) and finally 50 μl of the bead/protein mixture. (final concentrations: beads, 200 μg/well; protein, 5 μg/well; [^125I] probe, 0 08 nM/well (17 nCi/well). The plates are shaken for 2 h before reading on a Microbeta plate reader. Non-specific binding is determined by the addition of 10 μM cold L-691,831 compound.

| IC50 [nM] | SMILES |
| --- | --- |
| 12.4 | CC(C)COC(=O)c1ncn(-c2ccc(C#N)cc2-c2nc3cc(-c4cnc(N)nc4)ccc3n2C(C)(C)C)n1 [1-{2-[5-(2-Amino-pyrimidin-5-yl)-1-tert-butyl-1H-benzoimidazol-2-yl]-4-cyano-phenyl}-1H-[1,2,4]triazole-3-carboxylic acid isobutyl ester] |
| 4.5 | CC(C)(C)n1c(-c2cc(Br)ccc2-n2cncn2)nc2cc(-c3cnc(N)nc3)ccc21 [5-[2-(5-Bromo-2-1,2,4-triazol-1-yl-phenyl)-1-tert-butyl-1H-benzimidazol-5-yl]-pyrimidin-2-ylamine] |
| 1.6 | COc1ccc(-n2cc(Cl)cn2)c(-c2nc3cc(-c4cnc(N)nc4)ccc3n2C(C)(C)C)c1 [5-{1-tert-Butyl-2-[2-(4-chloro-pyrazol-1-yl)-5-methoxy-phenyl]-1H-benzimidazol-5-yl}-pyrimidin-2-ylamine] |
| 4.1 | CC(C)(C)n1c(-c2ccccc2-n2cc(Cl)cn2)nc2cc(-c3cnc(N)nc3)ccc21 [5-{1-tert-Butyl-2-[2-(4-chloro-pyrazol-1-yl)-phenyl]-1H-benzimidazol-5-yl}-pyrimidin-2-ylamine] |
| 2.7 | COC(=O)c1ccc(-n2cncn2)c(-c2nc3cc(-c4cnc(N)nc4)ccc3n2C(C)(C)C)c1 [3-[5-(2-Amino-pyrimidin-5-yl)-1-tert-butyl-1H-benzoimidazol-2-yl]-4-[1,2,4]triazol-1-yl-benzoic acid methyl ester] |
| 36.8 | CC(C)(C)n1c(-c2cc(S(C)(=O)=O)ccc2-n2cncn2)nc2cc(-c3cnc(N)nc3)ccc21 [5-[1-tert-Butyl-2-(5-methanesulfonyl-2-[1,2,4]triazol-1-yl-phenyl)-1H-benzoimidazol-5-yl]-pyrimidin-2-ylamine] |
| 15.9 | COC(=O)c1ncn(-c2ccc(C#N)cc2-c2nc3cc(-c4cnc(N)nc4)ccc3n2C(C)(C)C)n1 [1-{2-[5-(2-Amino-pyrimidin-5-yl)-1-tert-butyl-1H-benzoimidazol-2-yl]-4-cyano-phenyl}-1H-[1,2,4]triazole-3-carboxylic acid methyl ester] |
| 3.3 | Cc1ncnn1-c1ccccc1-c1nc2cc(-c3cnc(N)nc3)ccc2n1C(C)(C)C [5-{1-tert-Butyl-2-[2-(5-methyl-1,2,4-triazol-1-yl)-phenyl]-1H-benzimidazol-5-yl}-pyrimidin-2-ylamine] |
| 0.83 | CC(C)(C)n1c(-c2cc(C#N)ccc2-n2cnc(Br)n2)nc2cc(-c3cnc(N)nc3)ccc21 [3-[5-(2-Amino-pyrimidin-5-yl)-1-tert-butyl-1H-benzoimidazol-2-yl]-4-(3-bromo-[1,2,4]triazol-1-yl)-benzonitrile] |
| 4.2 | CC(C)(C)n1c(-c2ccccc2-c2ncn(CC#N)n2)nc2cc(-c3cnc(N)nc3)ccc21 [(3-{2-[5-(2-Amino-pyrimidin-5-yl)-1-tert-butyl-1H-benzoimidazol-2-yl]-phenyl}-[1,2,4]triazol-1-yl)-acetonitrile] |
| 1.7 | COc1ccc(-c2csc(C)n2)c(-c2nc3cc(-c4cnc(N)nc4)ccc3n2C(C)(C)C)c1 [5-{1-tert-Butyl-2-[5-methoxy-2-(2-methyl-thiazol-4-yl)-phenyl]-1H-benzimidazol-5-yl}-pyrimidin-2-ylamine] |
| 1.3 | Cn1nnc(-c2ccccc2-c2nc3cc(-c4cnc(N)nc4)ccc3n2C(C)(C)C)n1 [5-{1-tert-Butyl-2-[2-(2-methyl-2H-tetrazol-5-yl)-phenyl]-1H-benzimidazol-5-yl}-pyrimidin-2-ylamine] |
| 4 | Cc1c(-c2ccc(-n3cncn3)c(-c3nc4cc(-c5cnc(N)nc5)ccc4n3C(C)(C)C)c2)cnn1C [5-{1-tert-Butyl-2-[5-(1,5-dimethyl-1H-pyrazol-4-yl)-2-[1,2,4]triazol-1-yl-phenyl]-1H-benzoimidazol-5-yl}-pyrimidin-2-ylamine] |
| 1.6 | Cn1ncnc1-c1ccc(F)cc1-c1nc2cc(-c3cnc(N)nc3)ccc2n1C(C)(C)C [5-{1-tert-Butyl-2-[5-fluoro-2-(2-methyl-2H-1,2,4-triazol-3-yl)-phenyl]-1H-benzimidazol-5-yl}-pyrimidin-2-ylamine] |
| 6.1 | Cn1ncnc1-c1ccccc1-c1nc2cc(-c3cnc(N)nc3)ccc2n1C(C)(C)C [5-{1-tert-Butyl-2-[2-(2-methyl-2H-1,2,4-triazol-3-yl)-phenyl]-1H-benzimidazol-5-yl}-pyrimidin-2-ylamine] |
| 6.9 | CC(C)(C)n1c(-c2cc(OC3CCOC3)ccc2-n2cncn2)nc2cc(-c3cnc(N)nc3)ccc21 (stereo not shown) [5-{1-tert-Butyl-2-[5-(tetrahydro-furan-3-yloxy)-2-1,2,4-triazol-1-yl-phenyl]-1H-benzimidazol-5-yl}-pyrimidin-2-ylamine] |
| 2.7 | CC(C)(C)n1c(-c2ccccc2-n2cncn2)nc2cc(-c3cnc(N)nc3)ccc21 |
| 3.3 | COCCn1cnc(-c2ccccc2-c2nc3cc(-c4cnc(N)nc4)ccc3n2C(C)(C)C)n1 [5-(1-tert-Butyl-2-{2-[1-(2-methoxy-ethyl)-1H-[1,2,4]triazol-3-yl]-phenyl}-1H-benzoimidazol-5-yl)-pyrimidin-2-ylamine] |
| 6 | CCCCC/C(=C\C(=O)O)c1ccc(-n2cncn2)c(-c2nc3cc(-c4cnc(N)nc4)ccc3n2C(C)(C)C)c1 [(E)-3-{3-[5-(2-Amino-pyrimidin-5-yl)-1-tert-butyl-1H-benzoimidazol-2-yl]-4-[1,2,4]triazol-1-yl-phenyl}-oct-2-enoic acid] |
| 5.9 | CC(C)(COc1ccc(-n2cncn2)c(-c2nc3cc(-c4cnc(N)nc4)ccc3n2C(C)(C)C)c1)C(=O)O [3-{3-[5-(2-Amino-pyrimidin-5-yl)-1-tert-butyl-1H-benzimidazol-2-yl]-4-1,2,4-triazol-1-yl-phenoxy}-2,2-dimethyl-propionic acid] |
| 1.7 | Cc1ccc(-n2cnc(C)n2)c(-c2nc3cc(-c4cnc(N)nc4)ccc3n2C(C)(C)C)c1 |
| 1.2 | Cn1ncnc1-c1ccc(Cl)cc1-c1nc2cc(-c3cnc(N)nc3)ccc2n1C(C)(C)C [5-{1-tert-Butyl-2-[5-chloro-2-(2-methyl-2H-1,2,4-triazol-3-yl)-phenyl]-1H-benzimidazol-5-yl}-pyrimidin-2-ylamine] |
| 1.5 | COc1ccc(-n2ncnc2C)c(-c2nc3cc(-c4cnc(N)nc4)ccc3n2C(C)(C)C)c1 [5-{1-tert-Butyl-2-[5-methoxy-2-(5-methyl-1,2,4-triazol-1-yl)-phenyl]-1H-benzimidazol-5-yl}-pyrimidin-2-ylamine] |
| 28 | CCCCC/C(=C\C(=O)OC)c1ccc(-n2cncn2)c(-c2nc3cc(-c4cnc(N)nc4)ccc3n2C(C)(C)C)c1 [(E)-3-{3-[5-(2-Amino-pyrimidin-5-yl)-1-tert-butyl-1H-benzoimidazol-2-yl]-4-[1,2,4]triazol-1-yl-phenyl}-oct-2-enoic acid methyl ester] |
| 1.5 | COc1ccc(-n2cccn2)c(-c2nc3cc(-c4cnc5c(c4)CCN5)ccc3n2C(C)(C)C)c1 [1-tert-Butyl-5-(2,3-dihydro-1H-pyrrolo[2,3-b]pyridin-5-yl)-2-(5-methoxy-2-pyrazol-1-yl-phenyl)-1H-benzimidazole] |
| 10 | CCOCc1ccc(-n2cncn2)c(-c2nc3cc(-c4cnc(N)nc4)ccc3n2C(C)(C)C)c1 [5-[1-tert-Butyl-2-(5-ethoxymethyl-2-[1,2,4]triazol-1-yl-phenyl)-1H-benzoimidazol-5-yl]-pyrimidin-2-ylamine] |
| 1.7 | CC(C)(C)n1c(-c2cccc(F)c2-n2cncn2)nc2cc(-c3cnc(N)nc3)ccc21 [5-[1-tert-Butyl-2-(3-fluoro-2-1,2,4-triazol-1-yl-phenyl)-1H-benzimidazol-5-yl]-pyrimidin-2-ylamine] |
| 1.7 | CC(C)(C)n1c(-c2ccc(Cl)cc2-n2cncn2)nc2cc(-c3cnc(N)nc3)ccc21 [5-[1-tert-Butyl-2-(4-chloro-2-1,2,4-triazol-1-yl-phenyl)-1H-benzimidazol-5-yl]-pyrimidin-2-ylamine] |
| 2.4 | CCc1ccc(-n2cncn2)c(-c2nc3cc(-c4cnc(N)nc4)ccc3n2C(C)(C)C)c1 [5-[1-tert-Butyl-2-(5-ethyl-2-1,2,4-triazol-1-yl-phenyl)-1H-benzimidazol-5-yl]-pyrimidin-2-ylamine] |
| 1.6 | Cc1ccc(-n2cncn2)c(-c2nc3cc(-c4cnc(N)nc4)ccc3n2C(C)(C)C)c1 |

| SMILES | IC50 [nM] |
| --- | --- |
| CC(C)NC(=O)Oc1ccc(-n2cncn2)c(-c2nc3cc(-c4cnc(N)nc4)ccc3n2C(C)(C)C)c1 [Isopropyl-carbamic acid 3-[5-(2-amino-pyrimidin-5-yl)-1-tert-butyl-1H-benzimidazol-2-yl]-4-1,2,4-triazol-1-yl-phenyl ester] | 1.5 |
